Assay results from US11000033B2, “Ketone or oxime compound, and herbicide” (NISSAN CHEMICAL CORPORATION, priority 2014, dated 2021).

Legend:
Type in all cases: in vivo
[1] = tested on: Echinochloa oryzacola Vasing.; assay: Test Example 1: herbicidal activity, application before weed generation in submerged conditions (symbol A); conditions: application herbicide amount 320 g/ha
Procedure, shortened: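 Application before weed emergence: an aqueous dilution of the emulsion formulation was poured onto the surface of 4 cm-deep floodwater on the day of sowing. Effect was judged after 3 weeks (greenhouse, 25–30 °C).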

transplanted rice plant = assay: Test Example 1: effect on crop, application before weed generation in submerged conditions (symbol a); conditions: application herbicide amount 320 g/ha
Procedure, shortened: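 Rice at 2.5 leaf stage transplanted into submerged soil (4 cm depth) sown with three weed species; herbicide applied before weed emergence.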

[2] = tested on: Echinochloa crus-galli var. crus-galli; assay: Test Example 3: herbicidal effect by foliage application, Wagner pot (symbol H); conditions: application herbicide amount 320 g/ha
Procedure, shortened: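 Weeds and rice were sown in alluvial soil under 0.1–0.5 cm of standing water and grown for 14 days in a 25–30 °C greenhouse. An emulsion of the compound, diluted in water to a set dose, was sprayed evenly onto the foliage. Effect was scored against fixed criteria 3 weeks after treatment.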

Setaria viridis [3] = assay: Test Example 4: herbicidal effect by soil treatment (symbol G); conditions: application herbicide amount 320 g/ha
Procedure, shortened: (§1)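 Seeds were sown in sterilized diluvial soil, covered with about 1.5 cm of soil, and the soil surface was sprayed with a water-diluted emulsion of the compound at a predetermined rate. Plants grew in a greenhouse at 25° C. to 30° C.; effects were scored visually 3 weeks after application.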

Lolium multiflorum Lam. = assay: Test Example 4: herbicidal effect by soil treatment (symbol K)
Procedure, shortened: as §1

Amaranthus retroflexus [4] = assay: Test Example 4: herbicidal effect by soil treatment (symbol N)
Procedure, shortened: as §1

Stellaria media [5] = assay: Test Example 4: herbicidal effect by soil treatment (symbol P)
Procedure, shortened: as §1

wheat [6] = assay: Test Example 4: effect on crop by soil treatment (symbol e); conditions: for e: wheat, effect on crop grade: application herbicide amount 320 g/ha
Procedure, shortened: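 Crop seed is sown in spots together with several weed species in a box of sterilized diluvial soil. It is covered by about 1.5 cm of soil and kept in a greenhouse held between 25° C. and 30° C.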

Setaria viridis [7] = assay: Test Example 5: herbicidal effect by foliage application, plastic box (symbol G); conditions: 320 g/ha, 3 weeks after application
Procedure, shortened: (§2)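 Emulsion formulation, diluted with water to the intended rate, was applied uniformly to leaves by small sprayer. Recipients were 14-day greenhouse-grown seedlings (25° C. to 30° C.). Assessment followed at 3 weeks.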

Avena fatua = assay: Test Example 5: herbicidal effect by foliage application, plastic box (symbol I); conditions: 320 g/ha, 3 weeks after application
Procedure, shortened: as §2

Abutilon theophrasti = assay: Test Example 5: herbicidal effect by foliage application, plastic box (symbol M); conditions: 320 g/ha, 3 weeks after application
Procedure, shortened: as §2

Amaranthus retroflexus [8] = assay: Test Example 5: herbicidal effect by foliage application, plastic box (symbol N); conditions: 320 g/ha, 3 weeks after application
Procedure, shortened: as §2

wheat [9] = assay: Test Example 5: effect on crop by foliage application, plastic box (symbol e); conditions: 320 g/ha, 3 weeks after application
Procedure, shortened: (§3)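 Seeds were sown in spots in sterilized diluvial soil held in a plastic box 21 cm × 13 cm × 7 cm deep, covered with about 1.5 cm of soil, and grown in a greenhouse at 25° C. to 30° C.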

Stellaria media [10] = assay: Test Example 5: herbicidal effect by foliage application, plastic box (symbol P); conditions: 320 g/ha, 3 weeks after application
Procedure, shortened: as §2

beet = assay: Test Example 5: effect on crop by foliage application, plastic box (symbol f); conditions: 320 g/ha, 3 weeks after application
Procedure, shortened: as §3

[11] = application herbicide amount 320 g/ha

SMILES	Herbicidal effect grade, A: Echinochloa oryzacola Vasing. [1]	Effect grade on crop, a: transplanted rice plant (transplanted rice plant)	herbicidal effect on H (Echinochloa crus-galli var. crus-galli), grade 0-5 [2]	G: Setaria viridis, herbicidal effect grade (Setaria viridis [3])	K: Lolium multiflorum Lam., herbicidal effect grade (Lolium multiflorum Lam.; [11])	N: Amaranthus retroflexus, herbicidal effect grade (Amaranthus retroflexus [4]; [11])	P: Stellaria media, herbicidal effect grade (Stellaria media [5]; [11])	e: wheat, effect on crop grade (wheat [6])	G: Setaria viridis, herbicidal effect grade (Setaria viridis [7])	I: Avena fatua, herbicidal effect grade (Avena fatua)	M: Abutilon theophrasti, herbicidal effect grade (Abutilon theophrasti)	N: Amaranthus retroflexus, herbicidal effect grade (Amaranthus retroflexus [8])	e: wheat, effect on crop grade (wheat [9])	f: beet, effect on crop grade (beet)	further results
CON=C(C)CC1CC(O)=C(c2c(C)cc(-n3cc(Cl)cn3)cc2C)C1=O (mixture of isomers) [6-004]	5 (Herbicidal ratio of 90% or more (almost completely withered))	5 (Herbicidal ratio of 90% or more (almost completely withered))	5 (Herbicidal ratio of 90% or more (almost completely withered))	5 (Herbicidal ratio of 90% or more (almost completely withered))	5 (Herbicidal ratio of 90% or more (almost completely withered))	4 (Herbicidal ratio of 70% or higher and lower than 90%)	0 (Herbicidal ratio of 5% or lower (almost no effect))	0 (Herbicidal ratio of 5% or lower (almost no effect))	5 (Herbicidal ratio of 90% or more (almost completely withered))	4 (Herbicidal ratio of 70% or higher and lower than 90%)	3 (Herbicidal ratio of 40% or higher and lower than 70%)	2 (Herbicidal ratio of 20% or higher and lower than 40%)	0 (Herbicidal ratio of 5% or lower (almost no effect))		
CON=C(C)CC1CC(OC(=O)N2CCCCC2)=C(c2c(C)cc(C)cc2C)C1=O (stereo not shown) [1-151]	5 (Herbicidal ratio of 90% or more (almost completely withered))	4 (Herbicidal ratio of 70% or higher and lower than 90%)	4 (Herbicidal ratio of 70% or higher and lower than 90%)												K: Lolium multiflorum Lam., herbicidal effect grade (Lolium multiflorum Lam.; 320 g/ha): 5 (Herbicidal ratio of 90% or more (almost completely withered)); N: Amaranthus retroflexus, herbicidal effect grade (Amaranthus retroflexus [4]; 320 g/ha): 0 (Herbicidal ratio of 5% or lower (almost no effect)); P: Stellaria media, herbicidal effect grade (Stellaria media [5]; 320 g/ha): 0 (Herbicidal ratio of 5% or lower (almost no effect)); e: wheat, effect grade on crop (wheat [6]; 320 g/ha): 0 (Herbicidal ratio of 5% or lower (almost no effect)); G: Setaria viridis, herbicidal effect (criteria 0-5) (Setaria viridis [7]): 5 (Herbicidal ratio of 90% or more (almost completely withered)); I: Avena fatua, herbicidal effect (criteria 0-5) (Avena fatua): 5 (Herbicidal ratio of 90% or more (almost completely withered)); M: Abutilon theophrasti, herbicidal effect (criteria 0-5) (Abutilon theophrasti): 3 (Herbicidal ratio of 40% or higher and lower than 70%); N: Amaranthus retroflexus, herbicidal effect (criteria 0-5) (Amaranthus retroflexus [8]): 0 (Herbicidal ratio of 5% or lower (almost no effect)); P: Stellaria media, herbicidal effect (criteria 0-5) (Stellaria media [10]): 0 (Herbicidal ratio of 5% or lower (almost no effect)); e: wheat, effect on crop (criteria 0-5) (wheat [9]): 3 (Herbicidal ratio of 40% or higher and lower than 70%); f: beet, effect on crop (criteria 0-5) (beet): 2 (Herbicidal ratio of 20% or higher and lower than 40%)
CC#Cc1cc(C)c(C2=C(O)CC(CC(C)=NOC)C2=O)c(CC)c1 (mixture of isomers) [6-006]	5 (Herbicidal ratio of 90% or more (almost completely withered))	5 (Herbicidal ratio of 90% or more (almost completely withered))	5 (Herbicidal ratio of 90% or more (almost completely withered))	5 (Herbicidal ratio of 90% or more (almost completely withered))	5 (Herbicidal ratio of 90% or more (almost completely withered))	3 (Herbicidal ratio of 40% or higher and lower than 70%)	0 (Herbicidal ratio of 5% or lower (almost no effect))	5 (Herbicidal ratio of 90% or more (almost completely withered))	3 (Herbicidal ratio of 40% or higher and lower than 70%)	1 (Herbicidal ratio of 5% or higher and lower than 20%)	0 (Herbicidal ratio of 5% or lower (almost no effect))	0 (Herbicidal ratio of 5% or lower (almost no effect))	5 (Herbicidal ratio of 90% or more (almost completely withered))		
CC(=O)CC1CC(OC(=O)C(C)(C)C)=C(c2c(C)cc(C)cc2C)C1=O (stereo not shown) [2-018]	5 (Herbicidal ratio of 90% or more (almost completely withered))	4 (Herbicidal ratio of 70% or higher and lower than 90%)	5 (Herbicidal ratio of 90% or more (almost completely withered))	5 (Herbicidal ratio of 90% or more (almost completely withered))	5 (Herbicidal ratio of 90% or more (almost completely withered))	3 (Herbicidal ratio of 40% or higher and lower than 70%)	0 (Herbicidal ratio of 5% or lower (almost no effect))	0 (Herbicidal ratio of 5% or lower (almost no effect))	1 (Herbicidal ratio of 5% or higher and lower than 20%)	0 (Herbicidal ratio of 5% or lower (almost no effect))	0 (Herbicidal ratio of 5% or lower (almost no effect))	0 (Herbicidal ratio of 5% or lower (almost no effect))	0 (Herbicidal ratio of 5% or lower (almost no effect))	0 (Herbicidal ratio of 5% or lower (almost no effect))	
CCc1cc(Br)cc(C)c1C1=C(O)CC(CC(C)=NOC)C1=O (stereo not shown) [6-001]	5 (Herbicidal ratio of 90% or more (almost completely withered))	5 (Herbicidal ratio of 90% or more (almost completely withered))	5 (Herbicidal ratio of 90% or more (almost completely withered))	5 (Herbicidal ratio of 90% or more (almost completely withered))	5 (Herbicidal ratio of 90% or more (almost completely withered))	0 (Herbicidal ratio of 5% or lower (almost no effect))	0 (Herbicidal ratio of 5% or lower (almost no effect))	5 (Herbicidal ratio of 90% or more (almost completely withered))	5 (Herbicidal ratio of 90% or more (almost completely withered))	5 (Herbicidal ratio of 90% or more (almost completely withered))	0 (Herbicidal ratio of 5% or lower (almost no effect))	0 (Herbicidal ratio of 5% or lower (almost no effect))	5 (Herbicidal ratio of 90% or more (almost completely withered))	0 (Herbicidal ratio of 5% or lower (almost no effect))	
CCc1cc(-n2cc(Cl)cn2)cc(C)c1C1=C(O)CC(CC(C)=NOC)C1=O (mixture of isomers) [6-005]	5 (Herbicidal ratio of 90% or more (almost completely withered))	5 (Herbicidal ratio of 90% or more (almost completely withered))	5 (Herbicidal ratio of 90% or more (almost completely withered))	5 (Herbicidal ratio of 90% or more (almost completely withered))	5 (Herbicidal ratio of 90% or more (almost completely withered))	0 (Herbicidal ratio of 5% or lower (almost no effect))	0 (Herbicidal ratio of 5% or lower (almost no effect))	4 (Herbicidal ratio of 70% or higher and lower than 90%)	5 (Herbicidal ratio of 90% or more (almost completely withered))	5 (Herbicidal ratio of 90% or more (almost completely withered))	5 (Herbicidal ratio of 90% or more (almost completely withered))	4 (Herbicidal ratio of 70% or higher and lower than 90%)	4 (Herbicidal ratio of 70% or higher and lower than 90%)	0 (Herbicidal ratio of 5% or lower (almost no effect))	
